Source: PubChem BioAssay AID2060620 (Molecular Pharmacology Branch, DTP, NCI, 2025)
pIC50: −log10 of the molar value.

Tested on: 328373-195-R-J1-PDC complex spheroids, viability % test/control
Test: Anticancer human tumor 328373-195-R-J1-PDC patient-derived head and neck squamous carcinoma cell line growth inhibition [CLK]
Settings: for pIC50: curve of first compound; for viability, T/C: stronger effect = lower value
Source text: A high-throughput screen of multi-cell type tumor spheroids was designed to identify active combinations of […] and targeted small molecules. Complex spheroids include a stromal component modeled by human endothelial cells (HUVEC) and fibroblasts modeled by human mesenchymal stem cells (MSCs). The concentration ranges selected for each drug and investigational agent were based upon clinically achievable concentrations if the clinical Cmax of the agent was known.
Compounds. The drugs and investigational agents: cirtuvivint (SM08502; NSC835563), CC-671 (NSC850746), vemurafenib (NSC761431), tapotoclax (NSC804041), sotorasib (NSC818433), adagrasib (NSC831453), MRTX-1133 (NSC836407), BAY2416964 (NSC825713), copanlisib (NSC816437), inavolisib (NSC800729), abemaciclib (NSC768073), osimertinib (NSC779217), entinostat (NSC756642), eltanexor (KPT-8602, NSC794443), venetoclax (NSC766270), ceralasertib (NSC777638), bortezomib (NSC756655), olaparib (NSC753686), talazoparib (NSC767125), alisertib (NSC759677), peposertib (NSC802822), gemcitabine (NSC613327), 5-fluorouracil (NSC19893), SN-38 (NSC673596), oxaliplatin (NSC266046), paclitaxel (NSC125973), and doxorubicin (NSC123127), were obtained from the National Cancer Institute (NCI) Developmental Therapeutics Program Chemical Repository. The FDA-approved anticancer drug set is available from the Developmental Therapeutics Program at https://dtp.cancer.gov/organization/dscb/obtaining/available plates.htm. […] The stock solutions were prepared in dimethyl sulfoxide (DMSO, Sigma-Aldrich, St. Louis, MO, cat. D2650), except for the platinum complexes which were prepared in saline (Quality Biological, Gaithersburg, MD, cat. 114-055-101), at 800-fold the tested concentration and stored at -70 degrees C prior to their use. All drugs and investigational agents were tested over a range starting from a high concentration at or near the clinical Cmax and decreasing in half-log increments. If the clinical Cmax for an agent had not been determined, the highest concentration tested was 10 microM.
Cell Culture. All cells were maintained in an incubator at 37 degrees C and 5% CO2 with 95% humidity. The PDC lines were cultured according to standard operating procedures established by the NCI PDMR. Briefly, all PDCs were thawed and cultured in Matrigel-coated flasks prepared with a working solution of 1X Ham's F-12 nutrient mix, without supplementation (Invitrogen, Waltham, MA, cat. 11765054), 100 U/mL penicillin-streptomycin (Invitrogen, cat. 15140122), and 2.5% Matrigel (Corning Inc., Corning, NY, cat. 354248) for the first three passages. The 947758-054-R-J2-PDC line was cultured in 6B/Colon 1A media, which includes advanced DMEM/F-12 (Thermo Fisher Scientific, cat. 12634028), 10 mM HEPES (Thermo Fisher Scientific, cat. 15630080), 1X GlutaMAX supplement (Thermo Fisher Scientific, cat. 35050061), 0.1 mg/mL primocin (InvivoGen, cat. ant-pm-2), 10% defined fetal bovine serum, heat inactivated (HyClone Laboratories Inc., cat. SH30070.03HI), 1.25 mM N-Acetyl-L-cysteine (Sigma-Aldrich, cat. A9165), 10 mM nicotinamide (Sigma-Aldrich, cat. N0636), 1X B-27 supplement (Thermo Fisher Scientific, cat. 17504044), 1X N-2 supplement (Thermo Fisher Scientific, cat. 17502048), and 10 microM Y-27632 dihydrochloride (Tocris Bioscience, cat. 1254). The 876862-298-R-J1-PDC was cultured in 6E media, which includes all 6B/Colon 1A media components plus 50% L-WRN conditioned media (ATCC, cat. CRL-3276), 50 ng/mL recombinant human EGF recombinant protein (hEGF; Thermo Fisher Scientific, cat. PHG0311), 10 ng/mL recombinant human fibroblast growth factor 10 (hGFG-10; PeproTech, cat. 100-26), 1 ng/mL recombinant human fibroblast growth factor 2 (hFGF-2; PeproTech, cat. 100-18B), and 1 µM prostaglandin E2 (PGE2; Tocris, cat. 2296). The 227483-062-R1-J1-PDC line was cultured in Panc media, containing all 6E components except hFGF-2, with the addition of 500 nM SB-431542 (Selleckchem, cat. S1067) and 10 nM gastrin (Tocris, cat. 3006). […]

[1] = second compound 0.0316 µM, first compound 0.0316 µM
[2] = second compound 0.0316 µM, first compound 0.1 µM
[3] = second compound 0.0316 µM, first compound 0.316 µM
[4] = second compound 0.0316 µM, first compound 1 µM
[5] = second compound 0.0316 µM, first compound 3.16 µM
[6] = second compound 0.0316 µM, first compound 10 µM
[7] = second compound 0.1 µM, first compound 0.0316 µM
[8] = second compound 0.1 µM, first compound 0.1 µM
[9] = second compound 0.1 µM, first compound 0.316 µM
[10] = second compound 0.1 µM, first compound 1 µM
[11] = second compound 0.1 µM, first compound 3.16 µM
[12] = second compound 0.1 µM, first compound 10 µM
[13] = second compound 0.316 µM, first compound 0.0316 µM
[14] = second compound 0.316 µM, first compound 0.1 µM
[15] = second compound 0.316 µM, first compound 0.316 µM
[16] = second compound 0.316 µM, first compound 1 µM
[17] = second compound 0.316 µM, first compound 3.16 µM
[18] = second compound 0.316 µM, first compound 10 µM
[19] = second compound 1 µM, first compound 0.0316 µM
[20] = second compound 1 µM, first compound 0.1 µM
[21] = second compound 1 µM, first compound 0.316 µM
[22] = second compound 1 µM, first compound 1 µM
[23] = second compound 1 µM, first compound 3.16 µM
[24] = second compound 1 µM, first compound 10 µM
[25] = second compound 3.16 µM, first compound 0.0316 µM
[26] = second compound 3.16 µM, first compound 0.1 µM
[27] = second compound 3.16 µM, first compound 0.316 µM
[28] = second compound 3.16 µM, first compound 1 µM
[29] = second compound 3.16 µM, first compound 3.16 µM
[30] = second compound 3.16 µM, first compound 10 µM
[31] = second compound 10 µM, first compound 0.0316 µM
[32] = second compound 10 µM, first compound 0.1 µM
[33] = second compound 10 µM, first compound 0.316 µM
[34] = second compound 10 µM, first compound 1 µM
[35] = second compound 10 µM, first compound 3.16 µM
[36] = second compound 10 µM, first compound 10 µM
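Further: spheroids exposed to the agents for 7 days.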

`C=CC(=O)N1CCN(c2nc(=O)n(-c3c(C)ccnc3C(C)C)c3nc(-c4c(O)cccc4F)c(F)cc23)C(C)C1` (stereo unspecified) + CN1CCN(c2cc(C(=O)Nc3cc4cc(-c5cnn(C)c5)ccc4cn3)ccn2)CC1 was tested, and the pIC50 (second compound 0.0316 µM) was less than 5.00, the pIC50 (second compound 0.1 µM) was less than 5.00 and the pIC50 (second compound 0.316 µM) was greater than 7.50. The pIC50 (second compound 1 µM) was greater than 7.50, the pIC50 (second compound 3.16 µM) was greater than 7.50 and the pIC50 (second compound 10 µM) was greater than 7.50. The viability, T/C [1] was 93.6%, the viability, T/C [2] was 90.1% and the viability, T/C [3] was 99.3%. For the same compound, the viability, T/C [4] was 99%, the viability, T/C [5] was 94% and the viability, T/C [6] was 77.7%. For the same compound, the viability, T/C [7] was 80%, the viability, T/C [8] was 82.7% and the viability, T/C [9] was 89.3%. For the same compound, the viability, T/C [10] was 86.6%, the viability, T/C [11] was 83.5% and the viability, T/C [12] was 62.9%. The viability, T/C [13] was 37.6%, the viability, T/C [14] was 37.7% and the viability, T/C [15] was 41.1%. It also gave a viability, T/C [16] of 43.2%, a viability, T/C [17] of 36.2% and a viability, T/C [18] of 16.5%. The viability, T/C [19] was 0.2%, the viability, T/C [20] was 2.35% and the viability, T/C [21] was 0.89%. The viability, T/C [22] was 0.26%, the viability, T/C [23] was 1.99% and the viability, T/C [24] was 1.88%. It also gave a viability, T/C [25] of 1.99%, a viability, T/C [26] of 4.29% and a viability, T/C [27] of 3.33%. For the same compound, the viability, T/C [28] was 0.14%, the viability, T/C [29] was 1.88% and the viability, T/C [30] was 0.7%. The viability, T/C [31] was 1.21%, the viability, T/C [32] was 1.7% and the viability, T/C [33] was 1.33%. It also gave a viability, T/C [34] of 0.55%, a viability, T/C [35] of 3.67% and a viability, T/C [36] of 1%.
For `CCCS(=O)(=O)Nc1ccc(F)c(C(=O)c2c[nH]c3ncc(-c4ccc(Cl)cc4)cc23)c1F` + CN1CCN(c2cc(C(=O)Nc3cc4cc(-c5cnn(C)c5)ccc4cn3)ccn2)CC1, the pIC50 (second compound 0.0316 µM) was less than 5.00, the pIC50 (second compound 0.1 µM) was less than 5.00 and the pIC50 (second compound 0.316 µM) was greater than 7.50. It also gave a pIC50 (second compound 1 µM) greater than 7.50, a pIC50 (second compound 3.16 µM) greater than 7.50 and a pIC50 (second compound 10 µM) greater than 7.50. For the same compound, the viability, T/C [1] was 102%, the viability, T/C [2] was 91.4% and the viability, T/C [3] was 109%. It also gave a viability, T/C [4] of 100%, a viability, T/C [5] of 101% and a viability, T/C [6] of 81.6%. The viability, T/C [7] was 78.8%, the viability, T/C [8] was 82.2% and the viability, T/C [9] was 83.7%. The viability, T/C [10] was 86.6%, the viability, T/C [11] was 96.5% and the viability, T/C [12] was 81.7%. It also gave a viability, T/C [13] of 35.8%, a viability, T/C [14] of 38.5% and a viability, T/C [15] of 34.8%. For the same compound, the viability, T/C [16] was 40%, the viability, T/C [17] was 34.7% and the viability, T/C [18] was 28.9%. For the same compound, the viability, T/C [19] was 2.19%, the viability, T/C [20] was 1.09% and the viability, T/C [21] was 2.63%. It also gave a viability, T/C [22] of 2.9%, a viability, T/C [23] of 1.71% and a viability, T/C [24] of 0.31%. For the same compound, the viability, T/C [25] was 0.65%, the viability, T/C [26] was 1.41% and the viability, T/C [27] was 2.96%. The viability, T/C [28] was 1.01%, the viability, T/C [29] was 1.06% and the viability, T/C [30] was 0.14%. It also gave a viability, T/C [31] of 1.51%, a viability, T/C [32] of 3.41% and a viability, T/C [33] of 0.81%. It also gave a viability, T/C [34] of 2.54%, a viability, T/C [35] of 2.37% and a viability, T/C [36] of 0.63%.
`COC1C=CCC(C)C(C)S(=O)(=O)NC(=O)c2ccc3c(c2)N(CC2CCC21)CC1(CCCc2cc(Cl)ccc21)CO3` (stereo unspecified) + CN1CCN(c2cc(C(=O)Nc3cc4cc(-c5cnn(C)c5)ccc4cn3)ccn2)CC1 was tested, and the pIC50 (second compound 0.0316 µM) was 5.03, the pIC50 (second compound 0.1 µM) was 5.10 and the pIC50 (second compound 0.316 µM) was greater than 7.50. The pIC50 (second compound 1 µM) was greater than 7.50, the pIC50 (second compound 3.16 µM) was greater than 7.50 and the pIC50 (second compound 10 µM) was greater than 7.50. It also gave a viability, T/C [1] of 96.7%, a viability, T/C [2] of 99.5% and a viability, T/C [3] of 108%. For the same compound, the viability, T/C [4] was 105%, the viability, T/C [5] was 81.2% and the viability, T/C [6] was 48%. The viability, T/C [7] was 77.3%, the viability, T/C [8] was 87% and the viability, T/C [9] was 82.2%. For the same compound, the viability, T/C [10] was 80.7%, the viability, T/C [11] was 73.5% and the viability, T/C [12] was 44%. For the same compound, the viability, T/C [13] was 36%, the viability, T/C [14] was 35.3% and the viability, T/C [15] was 37%. It also gave a viability, T/C [16] of 32.4%, a viability, T/C [17] of 29.3% and a viability, T/C [18] of 13.3%. The viability, T/C [19] was 0.21%, the viability, T/C [20] was 2.53% and the viability, T/C [21] was 2.21%. It also gave a viability, T/C [22] of 1.57%, a viability, T/C [23] of 0.27% and a viability, T/C [24] of 1.2%. For the same compound, the viability, T/C [25] was 2.24%, the viability, T/C [26] was 3.21% and the viability, T/C [27] was 2.04%. For the same compound, the viability, T/C [28] was 1.78%, the viability, T/C [29] was 1.66% and the viability, T/C [30] was 1.86%. For the same compound, the viability, T/C [31] was 4.14%, the viability, T/C [32] was 0.77% and the viability, T/C [33] was 1.41%. For the same compound, the viability, T/C [34] was 2.69%, the viability, T/C [35] was 1.19% and the viability, T/C [36] was 0.32%.
